# Tests used:
# Assay type in all cases: in vivo
# Veronica persica (VERPE) = assay: Post-emergence herbicidal action, greenhouse pot test
# Summary of the method: (§1)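 Greenhouse-grown weeds in sandy loam were sprayed post-emergence at the one-leaf stage, 2–3 weeks after sowing. Compounds were formulated as WP or EC in water with 0.5% additive at 600 l/ha, at rates of 20 g/ha or less. Visual rating after about 3 weeks used a scale from 0% (like untreated control) to 100% (plants dead).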
# Avena fatua (AVEFA) = assay: as above; conditions: 20 g/ha, rated visually after about 3 weeks vs untreated controls, 100% = plants have died
# Summary of the method: as §1
# [1] = tested on: Polygonum convolvulus (POLCO); assay: as above
# Summary of the method: as §1
# Viola tricolor (VIOTR) = assay: as above
# Summary of the method: as §1
# [2] = tested on: Amaranthus retroflexus (AMARE); assay: as above; conditions: rated visually after about 3 weeks vs untreated controls, 100% = plants have died
# Summary of the method: as §1
# [3] = tested on: Pharbitis purpurea (PHBPU); assay: as above
# Summary of the method: as §1
# [4] = tested on: Abutilon theophrasti (ABUTH); assay: as above; conditions: rated visually after about 3 weeks vs untreated controls, 100% = plants have died
# Summary of the method: as §1
# Setaria viridis (SETVI) = assay: Post-emergence herbicidal action, greenhouse pot test (also comparative test C); conditions: for Post-emergence action against SETVI: 20 g/ha
# Summary of the method: (§2)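 Greenhouse pot plants in sandy loam were sprayed post-emergence at the one-leaf stage (2–3 weeks after sowing) with WP or EC formulations plus 0.5% additive at 600 l/ha water. Activity was rated visually after about 3 weeks versus untreated controls (100% = dead, 0% = like control); rates were 20 g/ha or less, and 5 g/ha or less in the comparative test.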
# [5] = tested on: Echinochloa crus-galli (ECHCG); assay: as above
# Summary of the method: as §2
# [6] = tested on: Matricaria inodora (MATIN); assay: as above
# Summary of the method: as §2
# [7] = tested on: Alopecurus myosuroides (ALOMY); assay: as above
# Summary of the method: as §2
# Oryza sativa (ORYSA) = assay: Post-emergence crop plant compatibility, greenhouse pot test (also comparative test C); conditions: for Post-emergence action against ORYSA (crop plant compatibility): vs untreated controls
# Summary of the method: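 Rice and other crops sprayed post-emergence at one-leaf stage (2–3 weeks after sowing) with WP or EC formulations plus 0.5% additive at 600 l/ha water. Visual rating about 3 weeks later versus untreated controls (100% = dead, 0% = like control); suffixes a–c denote different doses.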
# [8] = tested on: Triticum aestivum (TRZAS); assay: Post-emergence crop plant compatibility, greenhouse pot test; conditions: 1.25 g/ha, vs untreated controls
# Summary of the method: (§3)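 Greenhouse-grown crop plants sprayed post-emergence at the one-leaf stage with WP or EC formulations plus 0.5% additive, at 600 l/ha water. Damage rated visually after about 3 weeks versus untreated controls (0% = like control, 100% = dead); suffixes a/b/c denote different dosages.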
# Zea mays (ZEAMX) = assay: as above; conditions: 1.25 g/ha, vs untreated controls
# Summary of the method: as §3
# Brassica napus (BRSNW) = assay: as above; conditions: for Post-emergence action against BRSNW (crop plant compatibility): 1.25 g/ha, vs untreated controls
# Summary of the method: as §3
# Stellaria media (STEME) = assay: Post-emergence herbicidal action, greenhouse pot test
# Summary of the method: as §1
# Glycine max (GLXMA) = assay: Post-emergence crop plant compatibility, greenhouse pot test
# Summary of the method: as §3
# [9] = application rate of 5 g or less per hectare, tables C1 to C4
# [10] = comparative test C, application rate 1.25 g/ha
# [11] = rated visually after about 3 weeks vs untreated controls, 100% = plants have died
smiles,measurement,setting,value
Cn1c(C(F)(F)F)cc(=O)n(-c2cc(Oc3ccccc3OCC(=O)OC3COC3)c(Cl)cc2F)c1=O [I.7-115],Post-emergence action against VERPE,Veronica persica (VERPE); 1.25 g/ha,100%
same,Post-emergence action against VERPE,Veronica persica (VERPE); 5 g/ha,100%
same,Post-emergence action against VERPE,Veronica persica (VERPE); 20 g/ha,100%
same,Post-emergence action at 20 g/ha against AVEFA in %,Avena fatua (AVEFA),100%
same,Post-emergence action against POLCO in %,[1]; dosage 5 g/ha,100%
same,Post-emergence action against POLCO in %,[1]; dosage 20 g/ha,100%
same,Post-emergence action against VIOTR,Viola tricolor (VIOTR); 1.25 g/ha,100%
same,Post-emergence action against VIOTR,Viola tricolor (VIOTR); 5 g/ha,100%
same,Post-emergence action against VIOTR,Viola tricolor (VIOTR); 20 g/ha,100%
same,Post-emergence action at 1.25 g/ha against AMARE in %,[2],100%
same,Post-emergence action at 5 g/ha against AMARE in %,[2],100%
same,Post-emergence action at 20 g/ha against AMARE in %,[2],100%
same,Post-emergence action against PHBPU in %,[3]; dosage 1.25 g/ha,100%
same,Post-emergence action against PHBPU in %,[3]; dosage 5 g/ha,100%
same,Post-emergence action against PHBPU in %,[3]; dosage 20 g/ha,100%
same,Post-emergence action at 1.25 g/ha against ABUTH in %,[4],80%
same,Post-emergence action at 5 g/ha against ABUTH in %,[4],100%
same,Post-emergence action at 20 g/ha against ABUTH in %,[4],100%
same,Post-emergence action against SETVI,Setaria viridis (SETVI),100%
same,herbicidal efficacy against SETVI by comparison with literature compound a-17 / 3-14,Setaria viridis (SETVI); [9],distinct improvement in herbicidal efficacy
same,SETVI (efficacy in %),Setaria viridis (SETVI); [10],100%
same,Post-emergence action against SETVI in %,Setaria viridis (SETVI); dosage 1.25 g/ha,100%
same,Post-emergence action against SETVI in %,Setaria viridis (SETVI); dosage 5 g/ha,100%
same,Post-emergence action at 1.25 g/ha against ECHCG in %,"[5]; 1.25 g/ha, rated visually after about 3 weeks vs untreated controls, 100% = plants have died",100%
same,herbicidal efficacy against ECHCG by comparison with literature compound a-17 / 3-14,[5]; [9],distinct improvement in herbicidal efficacy
same,ECHCG (efficacy in %),[5]; [10],100%
same,Post-emergence action against ECHCG in %,[5]; dosage 5 g/ha,100%
same,Post-emergence action against ECHCG in %,[5]; dosage 20 g/ha,100%
same,herbicidal efficacy against MATIN by comparison with literature compound a-17 / 3-14,[6]; [9],distinct improvement in herbicidal efficacy
same,MATIN (efficacy in %),[6]; [10],100%
same,Post-emergence action against MATIN in %,[6]; dosage 1.25 g/ha,100%
same,Post-emergence action against MATIN in %,[6]; dosage 5 g/ha,100%
same,Post-emergence action against MATIN in %,[6]; dosage 20 g/ha,100%
same,Post-emergence action at 5 g/ha against ALOMY in %,"[7]; 5 g/ha, rated visually after about 3 weeks vs untreated controls, 100% = plants have died",100%
same,Post-emergence action at 20 g/ha against ALOMY in %,[7]; [11],100%
same,herbicidal efficacy against ALOMY by comparison with literature compound a-17 / 3-14,[7]; [9],distinct improvement in herbicidal efficacy
same,Post-emergence action against ORYSA (crop plant compatibility),Oryza sativa (ORYSA); 1.25 g/ha,0%
same,compatibility with respect to the crop plant Oryza sativa (ORYSA) by comparison with literature compound a-17 / 3-14,"Oryza sativa (ORYSA); application rate of 1.25 g per hectare, table C5",distinct improvement in compatibility
same,ORYSA (efficacy in %),"Oryza sativa (ORYSA); comparative test C, application rate 1.25 g/ha, crop plant compatibility",0%
same,Post-emergence action against TRZAS (crop plant compatibility),[8],0%
same,Post-emergence action against ZEAMX (crop plant compatibility),Zea mays (ZEAMX),20%
same,Post-emergence action against BRSNW (crop plant compatibility),Brassica napus (BRSNW),20%
COCCOCCOC(=O)C(C)Oc1ccccc1Sc1cc(-n2c(=O)cc(C(F)(F)F)n(C)c2=O)c(F)cc1Cl (racemic) [I.2-23],Post-emergence action against VERPE,Veronica persica (VERPE); 1.25 g/ha,80%
same,Post-emergence action against VERPE,Veronica persica (VERPE); 5 g/ha,100%
same,Post-emergence action against VERPE,Veronica persica (VERPE); 20 g/ha,100%
same,Post-emergence action against POLCO in %,[1]; dosage 5 g/ha,100%
same,Post-emergence action against POLCO in %,[1]; dosage 20 g/ha,100%
same,Post-emergence action against VIOTR,Viola tricolor (VIOTR); 5 g/ha,100%
same,Post-emergence action against VIOTR,Viola tricolor (VIOTR); 20 g/ha,100%
same,Post-emergence action at 1.25 g/ha against AMARE in %,[2],80%
same,Post-emergence action at 5 g/ha against AMARE in %,[2],100%
same,Post-emergence action at 20 g/ha against AMARE in %,[2],100%
same,Post-emergence action against PHBPU in %,[3]; dosage 1.25 g/ha,100%
same,Post-emergence action against PHBPU in %,[3]; dosage 5 g/ha,100%
same,Post-emergence action against PHBPU in %,[3]; dosage 20 g/ha,100%
same,Post-emergence action against STEME,Stellaria media (STEME); 5 g/ha,100%
same,Post-emergence action against STEME,Stellaria media (STEME); 20 g/ha,100%
same,Post-emergence action at 1.25 g/ha against ABUTH in %,[4],100%
same,Post-emergence action at 5 g/ha against ABUTH in %,[4],100%
same,Post-emergence action at 20 g/ha against ABUTH in %,[4],100%
same,Post-emergence action against SETVI,Setaria viridis (SETVI),100%
same,Post-emergence action against SETVI in %,Setaria viridis (SETVI); dosage 5 g/ha,100%
same,Post-emergence action against ECHCG in %,[5]; dosage 5 g/ha,100%
same,Post-emergence action against ECHCG in %,[5]; dosage 20 g/ha,100%
same,Post-emergence action against MATIN in %,[6]; dosage 5 g/ha,80%
same,Post-emergence action against MATIN in %,[6]; dosage 20 g/ha,100%
same,Post-emergence action at 20 g/ha against ALOMY in %,[7]; [11],80%
same,Post-emergence action against ORYSA (crop plant compatibility),Oryza sativa (ORYSA); 1.25 g/ha,10%
same,Post-emergence action against ORYSA (crop plant compatibility),Oryza sativa (ORYSA); 5 g/ha,10%
same,Post-emergence action against TRZAS (crop plant compatibility),[8],20%
same,Post-emergence action against GLXMA in %,Glycine max (GLXMA); 1.25 g/ha,0%
same,Post-emergence action against GLXMA in %,Glycine max (GLXMA); 5 g/ha,10%
same,Post-emergence action against GLXMA in %,Glycine max (GLXMA); 20 g/ha,20%
same,Post-emergence action against BRSNW (crop plant compatibility),Brassica napus (BRSNW),20%
same,Post-emergence action at 5 g/ha against BRSNW in %,"Brassica napus (BRSNW); 5 g/ha, crop plant compatibility, observed effects on crop plant in comparison to untreated controls",20%

# From patent publication US20240025862A1, “SUBSTITUTED N-PHENYLURACILS AND SALTS THEREOF, AND USE THEREOF AS HERBICIDAL ACTIVE SUBSTANCES” (Bayer Aktiengesellschaft, priority 2020, published 2024)
